# Data: patent publication US7875422B2, “Viral drug susceptibility testing” (Cavidi AB, priority 2001, dated 2011)
# Like-named read-outs stand apart in the source and are kept apart here.
# Key:
# [1] = biological target: T1, recombinant HIV 1 RT wild type (Human immunodeficiency virus type 1 group M subtype B, UniProt P04585); experiment: Influence of the amount of RT used in the drug susceptibility tests (AZT-TP); format: biochemical
# T1 construct: This variation was maximal for wild type RT; made in house
# [2] = biological target: recombinant HIV 1 RT M41L/T69S-SS/L210W/R211K/L214F/T215Y (Human immunodeficiency virus type 1 group M subtype B, UniProt P04585, INS655SS/L797W/L801F/M628L/R798K/T656S/T802Y); experiment: biochemical
# Text: (§2) Regrettably an efficient phosphorolysis reaction is promptly reflected by a decrease in polymerization velocity and as a consequence also a decrease in detection sensitivity. Therfore this assay require more RT activity, compared to the corresponding assay for the NNRTIs.
# [3] = test system: recombinant HIV 1 RT M41L/T69S-SS/L210W/R211K/L214F/T215Y; conditions: Recombinant RT control T69S→SS; compared to wild type control RT
# Text: as §2
# [4] = biological target: recombinant HIV 1 RT T215Y (Human immunodeficiency virus type 1 group M subtype B, UniProt P04585, T802Y); experiment: RT inhibition assay for dT analogues (Chain-termination reaction mixture)
# [5] = biological target: T2, recombinant HIV 1 RT wild type BH10 (Human immunodeficiency virus type 1 group M subtype B, UniProt P03366); experiment: as above; conditions: for fold increase of IC50: Recombinant RT control wild type RT (Table 4)
# [6] = biological target: recombinant HIV 1 RT wild type HxB2 (Human immunodeficiency virus type 1 group M subtype B, UniProt P04585); experiment: as above
# Text: as §2
# [7] = biological target: HIV RT recovered from patient plasma (UniProt P04585, M628L/E631D/D654N/A685G/V705I/Y768C/L797W/T802Y, species not given); experiment: Susceptibility to AZT-TP and d4T-TP using plasma derived RTs (Chain-termination reaction mixture); conditions: plasma RT of patient code 656 (resensitising 181C); 5 fg/well
# [8] = biological target: HIV RT recovered from patient plasma (UniProt P04585, T656N/L687I/K690N, species not given); experiment: as above; conditions: plasma RT of patient code 622; 5 fg/well
# [9] = biological target: T3, HIV RT recovered from patient plasma (Human immunodeficiency virus type 1, UniProt P03366); experiment: as above; conditions: 5 fg/well
# Protocol: (§3) • 1) Label the 4.5 ml plastic tubes to be used. Place them in a Nalgene box. Add 1 ml of sample (e.g. EDTA plasma from HIV infected individuals) to each labelled tube. Add 100 μl of a 66 mM solution of 5,5′-dithiobis-(2-nitrobenzoic acid) in buffered water, vortex and incubate the samples for one hour at room temperature.
# (§4) The activity of the free plasma enzymes is destroyed during this procedure while the enzymes contained within the virions remain intact. The virions can then be purified from 5,5′-dithiobis-(2-nitrobenzoic acid), enzyme activity blocking antibodies and other substances that may interfere with quantification of viral RT by several separation procedures. The protocol below is based on the use of Fractogel® EMD TMAE Hicap gel. • 2) Suspend the separation gel carefully and transfer 1500 μl gel slurry to each sample pretreatment tube. • 3) Incubate the samples with the gel slurry for 90 minutes at room temperature with the tubes lying down horizontally on an orbital shaker. • 4) Label the desired amount of 10 ml plastic mini columns to identify the samples being analyzed. Mount the columns in a column washing device i.e. a Supelco Visiprep solid phase extraction vacuum manifold. Transfer the contents in the binding tubes to their corresponding columns. Before transfer vortex the tube briefly to evenly distribute the gel. • 5) When all the columns are filled, apply the vacuum and suck the gels dry. Turn off the vacuum and start the washing by filling each column with 9 ml buffer A. When all columns have been filled, apply the vacuum and suck the gels dry. • 6) Repeat step 5 three more times, giving a total of four washes. Suck the gels dry after each wash. After sucking the gels dry after the fourth wash, turn off the vacuum and proceed to step 7. • The washing step removes unbound RT blocking antibodies and 5,5′-dithiobis-(2-nitrobenzoic acid) from the system. • 7) Add to all dry gels 9 ml of conditioning buffer (B). After one minute apply vacuum and suck the gels dry. • 8) Repeat step 7. Before turning off the vacuum check that all conditioning buffer (B) has been removed from all gels. • 9) Lift off the upper part of the column wash device. Mount the tube holder with the labelled tubes into a clean container. Refit the upper part of the device. Control that the small tubings from each column go down in their corresponding tubes. • 10) Add 600 μl lysis buffer (C) to each column. Let the buffer stand in the column for five minutes. Then apply the vacuum slowly and suck the gels dry. This will in each tube give approximately 600 μl of virus lysate from the connected gel.
# (§5) The RT activity recovered in the lysates from step 10 are essentially free from RT blocking antibodies, drugs and cellular polymerase activity, and can be quantified with a sensitive RT activity assay, i.e. the Cavidi HS-kit Lenti RT, which is based on the method described by Ekstrand et al [7]. 25 μl lysate obtained according to the current protocol is sufficient for determination of the RT activity in the sample. The Remaining 575 μl sample should be frozen at −70° C. or below for later use in the drug sensitivity test.
# [10] = test system: HIV RT recovered from patient plasma; experiment: as above; conditions: compared to wild type control RT
# Protocol: as §3, §4, §5
# [11] = biological target: HIV RT recovered from patient plasma (UniProt P04585, K690N/V695H, species not given); experiment: as above; conditions: plasma RT of patient code 2098; 5 fg/well
# [12] = biological target: HIV RT recovered from patient plasma (UniProt P04585, K657R/L797S, species not given); experiment: as above; conditions: plasma RT of patient code 1030 (K70R, L210S); 5 fg/well
# [13] = test system: HIV 1 virus with the corresponding RT modification; set-up: key: S = sensitive; L = Low level resistance (2–10 times increase in inhibitory dose); I = Intermediate resistance (10–100 times increase); H = High level resistance (>100 times increase); conditions: phenotype data from literature, cited from earlier work
# [14] = test system: HIV 1 virus with the corresponding RT modification; set-up: key: RS = the mutations gives re-sensitation of resistant virus; S = sensitive; L = Low level resistance; I = Intermediate resistance; H = High level resistance; conditions: phenotype data from literature, cited from earlier work
# [15] = test system: HIV 1 virus with the corresponding RT modification; set-up: key: S = sensitive; L = Low level resistance (2–10 times increase in inhibitory dose); I = Intermediate resistance (10–100 times increase); H = High level resistance (>100 times increase); conditions: dT analogues, phenotype data from literature, cited from earlier work
# [16] = biological target: T3, HIV RT recovered from patient plasma; experiment: Susceptibility to NNRTIs using plasma derived RTs; format: biochemical, HIV-1; conditions: 1.7 fg/well
# Text: Place them in a Nalgene box.
# Suck the gels dry after each wash. […] Refit the upper part of the device.
# [17] = biological target: recombinant HIV 1 RT K103N (Human immunodeficiency virus type 1 group M subtype B, UniProt P03366, K702N); experiment: RT inhibition assay for non-nucleoside inhibitors (modified HS Lenti RT assay, RT Reaction mixture); format: biochemical; conditions: 1.7 fg/well, 19 hours, read-out: IC50 of indicated inhibitor in RT assay
# Text: (§1) As template for the mutations was used the pETRT expression vector, which was constructed from the BH10 isolate.
# [18] = biological target: recombinant HIV 1 RT L100I (Human immunodeficiency virus type 1 group M subtype B, UniProt P03366, L699I); experiment: as above; format: biochemical; conditions: 1.7 fg/well, 19 hours, read-out: IC50 of indicated inhibitor in RT assay
# Text: as §1
# [19] = biological target: recombinant HIV 1 RT L100I/K103N (Human immunodeficiency virus type 1 group M subtype B, UniProt P03366, K702N/L699I); experiment: as above; format: biochemical; conditions: 1.7 fg/well, 19 hours, read-out: IC50 of indicated inhibitor in RT assay
# Text: as §1
# [20] = biological target: T2, recombinant HIV 1 RT wild type BH10; experiment: as above; format: biochemical; conditions: 1.7 fg/well, 19 hours, read-out: IC50 of indicated inhibitor in RT assay
# Text: as §1
# [21] = IC50, plasma RT of patient code 48
# [22] = IC50, plasma RT of patient code 160
# [23] = IC50, plasma RT of patient code 181
# [24] = IC50, plasma RT of patient code 662
# [25] = IC50, plasma RT of patient code 807
# [26] = IC50, plasma RT of patient code 3507
# [27] = virus with M41L/T69S-SS/L210W/R211K/L214F/T215Y
structure (smiles),measurement,setting,value
"Cc1cn(C2CC(N=[N+]=[N-])C(COP(=O)(O)OP(=O)(O)OP(=O)(O)O)O2)c(=O)[nH]c1=O (stereo not shown) [AZT-TP, 3′-azido-2′,3′-deoxythymidine triphosphate]",IC50,[1]; RT amount 2 fg/well,130 nM
same,IC50,[1]; RT amount 162 fg/well,220 nM
same,IC50,[2],4000 nM
same,fold increase of IC50,[3],25 fold
same,IC50,[4],690 nM
same,IC50,[5],160 nM
same,fold increase of IC50,[5],1.0 fold
same,IC50,[6],190 nM
same,IC50,[7],1250 nM
same,IC50,[8],230 nM
same,IC50,[9]; [21],470 nM
same,IC50,[9]; [22],270 nM
same,IC50,[9]; [23],500 nM
same,IC50,[9]; [24],500 nM
same,IC50,[9]; [25],500 nM
same,IC50,[9]; [26],130 nM
same,fold increase of IC50,[10]; patient code 48,2.9 fold
same,fold increase of IC50,[10]; patient code 160,1.7 fold
same,fold increase of IC50,[10]; patient code 181,3.1 fold
same,fold increase of IC50,[10]; patient code 393,20 fold
same,fold increase of IC50,[10]; patient code 622,1.4 fold
same,fold increase of IC50,[10]; patient code 656,7.8 fold
same,fold increase of IC50,[10]; patient code 662,3.1 fold
same,fold increase of IC50,[10]; patient code 807,3.1 fold
same,fold increase of IC50,[10]; patient code 1030,20 fold
same,fold increase of IC50,[10]; patient code 1144,3.5 fold
same,fold increase of IC50,[10]; patient code 1320,8.3 fold
same,fold increase of IC50,[10]; patient code 2098,2.2 fold
same,fold increase of IC50,[10]; patient code 3507,0.8 fold
same,IC50,[11],350 nM
same,IC50,[12],3200 nM
"Cc1cn([C@H]2C=C[C@@H](COP(=O)(O)OP(=O)(O)OP(=O)(O)O)O2)c(=O)[nH]c1=O [d4T-TP, 2′,3′-didehydro-3′-deoxythymidine triphosphate]",IC50,[2],490 nM
same,fold increase of IC50,[3],15 fold
same,IC50,[4],150 nM
same,IC50,[5],33 nM
same,fold increase of IC50,[5],1.0 fold
same,IC50,[6],50 nM
same,IC50,[7],170 nM
same,IC50,[8],28 nM
same,IC50,[9]; [21],85 nM
same,IC50,[9]; [22],43 nM
same,IC50,[9]; [23],49 nM
same,IC50,[9]; [24],65 nM
same,IC50,[9]; [25],70 nM
same,IC50,[9]; [26],20 nM
same,fold increase of IC50,[10]; patient code 48,2.6 fold
same,fold increase of IC50,[10]; patient code 160,1.3 fold
same,fold increase of IC50,[10]; patient code 181,1.5 fold
same,fold increase of IC50,[10]; patient code 393,12.7 fold
same,fold increase of IC50,[10]; patient code 622,0.8 fold
same,fold increase of IC50,[10]; patient code 656,5.2 fold
same,fold increase of IC50,[10]; patient code 662,2.0 fold
same,fold increase of IC50,[10]; patient code 807,2.7 fold
same,fold increase of IC50,[10]; patient code 1030,33 fold
same,fold increase of IC50,[10]; patient code 1320,19.6 fold
same,fold increase of IC50,[10]; patient code 2098,1.5 fold
same,fold increase of IC50,[10]; patient code 3507,0.6 fold
same,IC50,[11],48 nM
same,IC50,[12],1100 nM
"O=C1Nc2ccc(Cl)cc2C(C#CC2CC2)(C(F)(F)F)O1 (single isomer, unassigned; (-)) [Efavirienz, (−)6-chloro-4-cyclopropylethynyl-4-trifluoromethyl-1,4-dihydro-2H-3,1-benzoxazin-2-one]",Sensitivity of the corresponding virus,[13]; virus with K103N,H (H = High level resistance (>100 times increase))
same,Sensitivity of the corresponding virus,[13]; virus with L100I/K103N,H (H = High level resistance (>100 times increase))
same,Sensitivity of the corresponding virus,[13]; virus with L100I,I (I = Intermediate resistance (10–100 times increase))
same,Sensitivity of the corresponding virus,"[13]; wild type BH10, NNRTIs",S
same,Sensitivity of the corresponding virus,"[13]; wild type HxB2, NNRTIs",S
"Cc1ccnc2c1NC(=O)c1cccnc1N2C1CC1 [Nevirapin, 11-cyclopropyl-5,11-dihydro-4-methyl-6H-dipyrido[3,2-b:2′,3′-f][1,4]diazepin-6-one]",Sensitivity of the corresponding virus,[13]; virus with K103N,H (H = High level resistance (>100 times increase))
same,Sensitivity of the corresponding virus,[13]; virus with L100I/K103N,H (H = High level resistance (>100 times increase))
same,Sensitivity of the corresponding virus,[13]; virus with L100I,L (L = Low level resistance (2–10 times increase in inhibitory dose))
same,Sensitivity of the corresponding virus,"[13]; wild type BH10, NNRTIs",S
same,Sensitivity of the corresponding virus,"[13]; wild type HxB2, NNRTIs",S
Cc1cn([C@H]2C[C@H](N=[N+]=[N-])[C@@H](CO)O2)c(=O)[nH]c1=O [AZT],Sensitivity of the corrsponding virus,[14]; [27],H
same,Sensitivity of the corrsponding virus,[14]; virus with T215Y,I
same,Sensitivity of the corrsponding virus,[15]; wild type HXB2,S
same,Sensitivity of the corrsponding virus,[15]; wildtype BH 10,S
Cc1cn([C@H]2C=C[C@@H](CO)O2)c(=O)[nH]c1=O [d4T],Sensitivity of the corrsponding virus,[14]; [27],H
same,Sensitivity of the corrsponding virus,[14]; virus with T215Y,L
same,Sensitivity of the corrsponding virus,[15]; wild type HXB2,S
same,Sensitivity of the corrsponding virus,[15]; wildtype BH 10,S
"CC(C)Nc1cccnc1N1CCN(C(=O)c2cc3cc(NS(C)(=O)=O)ccc3[nH]2)CC1 [Delaviridine, 1-(5-methanesulphonamido-1H-indol-2-yl-carbonyl)-4-[3-(1-methylethyl-amino)pyridinyl]piperazine monomethane sulphonate]",IC50,"[16]; IC50, plasma RT of patient code 1177",4540 nM
same,IC50,"[16]; IC50, plasma RT of patient code 1412",3600 nM
same,IC50,"[16]; IC50, plasma RT of patient code 1424",8210 nM
same,IC50,"[16]; IC50, plasma RT of patient code 1572",9540 nM
same,IC50,"[16]; IC50, plasma RT of patient code 1639",12700 nM
same,IC50,"[16]; IC50, plasma RT of patient code 1885",8970 nM
same,IC50,[16]; plasma RT of patient code 3980 (V179T/A/I),7510 nM
same,IC50,[17],3000 nM
same,IC50,[18],9500 nM
same,IC50,[19],> 100000 nM
same,IC50,[20],500 nM
